pIC50: −log10 of the molar value.
These molecules were tested against Programmed cell death 1 ligand/protein 1 (Homo sapiens, UniProt Q9NZQ7) (assay: Homogeneous Time-Resolved Fluorescence (HTRF)).
Description: PD1/PD-L1 binding assay kit (Cisbio, Cat #63ADK000CPDEC) was used, which includes two proteins, Tag 1-PD-L1 and Tag 2-PD-1, and two antibodies, Anti-Tag1-Eu3+ and Anti-Tag2-XL 665. Assay principle: Anti-tag1-Eu3+ is the HTRF donor, and Anti-Tag2-XL 665 is the HTRF acceptor. When Tag 1-PD-L1 and Tag 2-PD-1 interact, the added HTRF donor and the acceptor are close to each other. After the donor receives the excitation energy, it transfers part of the energy to the acceptor, thus producing 665 nm emission signal. When the compound is added to block the PD1/PD-L1 interaction, only 620 nm emission light was detected. The inhibitory effect of the compound was determined by analyzing the ratio of 665 nm/620 nm. Tag 1-PD-L1 was diluted with Diluent buffer (cat #62DLBDDF) to a working concentration of 10 nM, Tag 2-PD-1 was diluted with Diluent buffer to a working concentration of 500 nM, and Anti-Tag1-Eu3+ was diluted with detection buffer (cat #62DB1FDG) by 1:100, Anti-Tag2-XL 665 was diluted with detection buffer by 1:20, and the test compound was diluted with Diluent buffer to a final concentration of 2×. In a 384-well plate, 2 μL of compound was added to each well, and then 4 μL of Tag 1-PD-L1, 4 μL of Tag 2-PD-1 were added and incubated at room temperature for 15 minutes.

Programmed cell death 1 ligand/protein 1, sequence (Q9NZQ7 whole entry): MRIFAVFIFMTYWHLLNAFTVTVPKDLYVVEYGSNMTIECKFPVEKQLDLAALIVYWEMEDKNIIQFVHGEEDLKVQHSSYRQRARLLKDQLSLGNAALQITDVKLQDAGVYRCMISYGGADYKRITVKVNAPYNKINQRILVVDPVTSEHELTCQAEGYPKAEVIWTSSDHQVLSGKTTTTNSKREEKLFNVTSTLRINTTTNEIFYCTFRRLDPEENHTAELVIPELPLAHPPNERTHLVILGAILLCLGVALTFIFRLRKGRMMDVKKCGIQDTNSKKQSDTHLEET
Programmed cell death 1 ligand/protein 1, sequence (Q15116 whole entry, further chain): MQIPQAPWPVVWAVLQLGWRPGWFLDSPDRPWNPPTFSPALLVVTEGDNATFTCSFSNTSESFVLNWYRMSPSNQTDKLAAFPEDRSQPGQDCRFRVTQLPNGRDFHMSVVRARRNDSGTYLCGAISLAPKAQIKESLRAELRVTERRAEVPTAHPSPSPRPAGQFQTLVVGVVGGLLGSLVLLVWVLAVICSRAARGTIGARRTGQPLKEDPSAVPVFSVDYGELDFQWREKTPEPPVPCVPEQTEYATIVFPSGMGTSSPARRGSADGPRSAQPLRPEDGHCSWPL

`COc1nc(OCc2cccc(-c3cccc(COc4ccc(CNCCNC(C)=O)c(OC)n4)c3C)c2C)ccc1C#N` [US11787766, Compound 17] and `COc1nc(OCc2cccc(-c3cccc(COc4ccc(C#N)c(OC)n4)c3C)c2C)ccc1C#N` [US11787766, Compound 5] cannot be ordered by pIC50: < 6.00 for the first, < 6.00 for the second.

`COc1nc(OCc2cccc(-c3cccc(CO)c3C)c2C)ccc1CN` [US11787766, Compound 3] and `COc1nc(OCc2cccc(-c3cccc(CO)c3C)c2C)ccc1CNCCNC(C)=O` [US11787766, Compound 2] cannot be ordered by pIC50: < 6.00 for the first, < 6.00 for the second.

`COc1nc(OCc2cccc(-c3cccc(CN)c3C)c2)ccc1CN` [US11787766, Compound 16] and `COc1cc(OCc2cccc(-c3cccc(CO)c3C)c2C)cc(OC)c1CN` [US11787766, Compound 11] cannot be ordered by pIC50: < 6.00 for the first, < 6.00 for the second.

`COc1nc(OCc2cccc(-c3cccc(COc4ccc(CN5C[C@H](O)C[C@H]5CO)c(OC)n4)c3Cl)c2Cl)ccc1CN1C[C@H](O)C[C@H]1CO` [US11787766, Compound 69] and `COc1nc(OCc2cccc(-c3cccc(COc4ccc(CNCCNC(C)=O)c(OC)n4)c3Cl)c2C)ccc1CNCCNC(C)=O` [US11787766, Compound 30] cannot be ordered by pIC50: > 8.00 for the first, > 8.00 for the second.

From BindingDB's records for patent US11787766 (Shanghai Ennovabio Pharmaceuticals, 2023)
